The values below are quoted from earlier work in patent publication US10517911B2, “Manufacturing methods, compositions, and medical applications of orally administered cannabis pharmaceuticals using representative/total/complete cannabis extractions (cannabis infused pills)” (priority 2016, dated 2019).

Molecules are shown by their SMILES.

For series [1], the system named is methicillin-resistant Staphylococcus aureus (MRSA).
The target in series [2] is COX-1 (Homo sapiens, UniProt P23219).
In series [3] the target is T1, COX-2 (Homo sapiens, UniProt P35354).
T1 sequence (P35354 18-604): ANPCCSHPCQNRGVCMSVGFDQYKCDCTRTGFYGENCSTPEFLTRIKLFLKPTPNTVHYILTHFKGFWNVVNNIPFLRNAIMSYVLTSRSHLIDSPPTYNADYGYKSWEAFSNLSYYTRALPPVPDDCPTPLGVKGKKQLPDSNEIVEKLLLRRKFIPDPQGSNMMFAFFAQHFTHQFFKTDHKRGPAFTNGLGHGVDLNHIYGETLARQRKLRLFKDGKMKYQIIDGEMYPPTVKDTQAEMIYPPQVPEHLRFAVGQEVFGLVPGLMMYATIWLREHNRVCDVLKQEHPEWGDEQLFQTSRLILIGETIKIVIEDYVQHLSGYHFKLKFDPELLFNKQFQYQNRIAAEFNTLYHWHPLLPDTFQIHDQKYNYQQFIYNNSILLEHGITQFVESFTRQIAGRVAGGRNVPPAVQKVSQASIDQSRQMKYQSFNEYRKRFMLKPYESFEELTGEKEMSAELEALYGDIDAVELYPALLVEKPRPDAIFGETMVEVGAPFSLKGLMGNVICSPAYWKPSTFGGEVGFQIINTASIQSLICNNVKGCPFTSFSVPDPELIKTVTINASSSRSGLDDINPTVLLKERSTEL

COX-1, sequence (P23219 24-599): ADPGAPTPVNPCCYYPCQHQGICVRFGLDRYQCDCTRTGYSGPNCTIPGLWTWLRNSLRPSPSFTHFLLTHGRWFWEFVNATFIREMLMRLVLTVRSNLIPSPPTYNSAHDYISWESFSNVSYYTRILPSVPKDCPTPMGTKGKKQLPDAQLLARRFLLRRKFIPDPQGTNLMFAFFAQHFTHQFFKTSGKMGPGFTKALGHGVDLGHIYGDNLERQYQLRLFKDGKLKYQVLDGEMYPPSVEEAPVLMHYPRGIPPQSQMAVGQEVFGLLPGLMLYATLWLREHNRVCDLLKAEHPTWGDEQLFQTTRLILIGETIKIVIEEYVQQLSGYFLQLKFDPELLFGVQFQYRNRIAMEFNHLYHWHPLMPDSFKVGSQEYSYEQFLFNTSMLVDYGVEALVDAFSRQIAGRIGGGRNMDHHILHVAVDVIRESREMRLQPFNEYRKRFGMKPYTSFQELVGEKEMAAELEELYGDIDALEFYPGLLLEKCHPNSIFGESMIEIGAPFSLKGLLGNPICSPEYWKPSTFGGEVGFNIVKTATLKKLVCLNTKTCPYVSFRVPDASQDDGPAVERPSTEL

On to `CCCCCc1cc(O)c2c(c1)OC(C)(C)c1ccc(C)cc1-2` [Cannabinol], for which the “activity against methicillin-resistant Staphylococcus aureus (MRSA)” value in series [1] is on record as “powerful activity”.

As to `CCCCCc1cc(O)c2c(c1)OC(C)(C)[C@@H]1CCC(C)=C[C@@H]21` [Tetrahydrocannabinol I, Tetrahydrocannabinol], in series [2], the COX-1 inhibition entry is reported as “no COX-1 or COX-2 inhibition”. For the same compound, the “anti-inflammatory effectiveness relative to aspirin” value (times as effective as aspirin) was 20 times. Besides, under “times as effective as hydrocortisone”, the “anti-inflammatory effectiveness relative to hydrocortisone” value was 2 times. The COX-2 inhibition entry in series [3] was “no COX-1 or COX-2 inhibition”.

As for `C=C(C)[C@@H]1CCC(C)=C[C@H]1c1c(O)cc(CCCCC)cc1O` [Cannabidiol], the “activity against methicillin-resistant Staphylococcus aureus (MRSA)” value in series [1] is recorded as “powerful activity”.
